In the test the test system is pancreatic cancer PANG-1 cell line. Kind of test: Fluorescence microscopy study of etoposide-induced senescence and anti-AGE antibody staining. In kind it is cell-based. The note with it: 12.5 μM for 24 hours. On the procedure:
Cells from the pancreatic cancer PANG-1 cell line were treated with 12.5 μM etoposide, a chemotherapeutic agent, for 24 hours to induce senescence. Control cells were treated with dimethyl sulfoxide (DMSO) vehicle for 24 hours. The cells were then stained with a senescence β-galactosidase staining kit, an anti-AGE antibody conjugated to green fluorescent protein (GFP) or an anti-AGE antibody conjugated to GFP and 4′,6-diamidino-2-phenylindole (DAPI). GFP-stained cells appear green and DAPI-stained cells appear blue under fluorescence microscopy.
FIG. 2A illustrates the untreated cells after staining with the senescence β-galactosidase staining kit. FIG. 2B illustrates the untreated cells after staining with the anti-AGE antibody conjugated to GFP. FIG. 2C illustrates the untreated cells after staining with the anti-AGE antibody conjugated to GFP-DAPI. FIGS. 2B and 2C have been brightened to enhance contrast. The untreated cells appear relatively uniform in size and shape and are densely packed.
FIG. 2D illustrates the etoposide-treated cells after staining with the senescence β-galactosidase staining kit. FIG. 2E illustrates the etoposide-treated cells after staining with the anti-AGE antibody conjugated to GFP. FIG. 2F illustrates the etoposide-treated cells after staining with the anti-AGE antibody conjugated to GFP-DAPI. FIGS. 2E and 2F have been brightened to enhance contrast.

The values below come from patent US20220175916A1, “METHODS AND COMPOSITIONS FOR TREATING CHRONIC EFFECTS OF RADIATION AND CHEMICAL EXPOSURE” (priority 2018, published 2022).

`COc1cc([C@@H]2c3cc4c(cc3[C@@H](O[C@@H]3O[C@@H]5CO[C@@H](C)O[C@H]5[C@H](O)[C@H]3O)[C@H]3COC(=O)[C@H]23)OCO4)cc(OC)c1O` [etoposide]: the “Appearance of treated cells (senescence)” value is “irregular appearance, are larger in size and are loosely packed”.
